Assay results from ChEMBL document CHEMBL1140238, “Synthesis of selective SRPK-1 inhibitors: novel tricyclic quinoxaline derivatives” (Bioorg Med Chem Lett, 2005).

Experiment: Partition coefficient (logP)
Assay type: physicochemical
Settings: octanol/water

SMILES	logP
c1ccc2[nH]cnc2c1 [BENZIMIDAZOLE]	1.55
COC(=O)Cc1ccc(-c2nc3cc4ccccc4cc3nc2-c2ccc(CC(=O)OC)s2)s1	4.95
COc1cc2c(c(OC)c1OC)-c1ccc(OC)c(=O)cc1[C@@H](NC(C)=O)CC2 [COLCHICINE]	0.92
CCC(=O)c1ccccc1 [PROPIOPHENONE]	2.2
CCCCC(=O)c1ccccc1 [VALEROPHENONE]	3.26
Cn1c(=O)c2[nH]c(-c3ccccc3)nc2n(C)c1=O [8-PHENYL THEOPHYLLINE]	2.05
CCCC(=O)c1ccccc1 [BUTYROPHENONE]	2.73
c1ccc(-c2nnn[nH]2)cc1	1.42
Cn1c(=O)c2[nH]cnc2n(C)c1=O [THEOPHYLLINE]	-0.05
